The source of these data is patent US8338450B2, “Compounds as dipeptidyl peptidase IV (DPP IV) inhibitors” (Lupin Limited, priority 2007, dated 2012).

Structures can show the parent of a compound that is named as a salt.

T1 sequence (P27487 whole entry): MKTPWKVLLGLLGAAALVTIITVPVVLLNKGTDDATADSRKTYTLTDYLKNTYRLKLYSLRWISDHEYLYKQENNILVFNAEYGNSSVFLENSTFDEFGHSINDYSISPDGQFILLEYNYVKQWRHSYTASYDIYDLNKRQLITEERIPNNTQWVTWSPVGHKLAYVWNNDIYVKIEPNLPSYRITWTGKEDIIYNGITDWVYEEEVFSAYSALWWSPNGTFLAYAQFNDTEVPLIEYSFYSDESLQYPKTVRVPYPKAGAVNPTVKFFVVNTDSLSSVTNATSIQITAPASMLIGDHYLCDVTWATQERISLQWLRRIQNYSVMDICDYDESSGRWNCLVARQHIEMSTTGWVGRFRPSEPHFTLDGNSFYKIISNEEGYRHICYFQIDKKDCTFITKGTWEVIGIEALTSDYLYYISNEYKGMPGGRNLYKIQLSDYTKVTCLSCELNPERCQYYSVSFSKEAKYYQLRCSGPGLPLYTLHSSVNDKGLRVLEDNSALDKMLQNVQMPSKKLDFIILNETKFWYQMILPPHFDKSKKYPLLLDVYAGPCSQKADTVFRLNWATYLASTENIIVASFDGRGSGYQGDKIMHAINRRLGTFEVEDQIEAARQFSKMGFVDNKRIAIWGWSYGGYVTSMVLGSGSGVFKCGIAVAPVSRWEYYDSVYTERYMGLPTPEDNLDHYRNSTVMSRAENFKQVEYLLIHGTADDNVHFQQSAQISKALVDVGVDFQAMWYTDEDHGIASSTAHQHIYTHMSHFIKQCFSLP

The first test addresses T1, human recombinant DPP-IV (Homo sapiens, UniProt P27487).
T1 construct: purchased R&D Systems, USA (or produced in-house)
In words: Inhibition of human recombinant DPP-IV (Gly-Pro-AMC hydrolysis, fluorometric). Type of test: biochemical. The conditions noted are these: compound 10 nM; relative to vehicle controls. The procedure:
Inhibition of Human Recombinant DPP-IV
The proteolytic activity of human recombinant DPP-IV was determined by following the hydrolysis of Gly-Pro-7-amino-4-methylcoumarin (Gly-Pro-AMC) and the fluorometric quantitation of the liberated AMC. Assays were routinely carried out in 96-well flat-bottom black microwell plates. The reaction mixture (100 μl) contained 10 ng of human recombinant DPP-IV enzyme (produced in-house or procured from R&D Systems, USA) in the assay buffer (25 mM Tris-HCl, pH 7.4, 140 mM NaCl, 10 mM KCl and 0.1 mg/ml BSA) and 50 μM Gly-Pro-AMC. After incubation of assay plates at 30° C. for 30 min, the hydrolysis of Gly-Pro-AMC was monitored in a fluorescence microplate reader (Molecular Devices SpectraMax M5), with excitation and emission wavelengths set at 360 nm and 460 nm, respectively.
The inhibition of DPP-IV activity by test compounds was routinely performed by preincubating the enzyme with test compound (10 and 100 nM for primary screening and 8 concentrations from 0.1 to 1000 nM for the dose-response study) or vehicle (0.01% DMSO) for 15 min at 30° C., in a total volume of 90 μl. Test compounds were dissolved in DMSO at a concentration of 10 mM and serially diluted further in assay buffer. The enzyme reaction was initiated by the addition of Gly-Pro-AMC, followed by incubation of assay plates for 30 min at 30° C. and the liberated AMC was measured as described above. A known inhibitor of DPP-IV (positive control) was always included in the assay. Test compounds at various concentrations were always evaluated in duplicate, along with substrate blanks, vehicle controls and positive controls.
The results are expressed as percent inhibition of the enzyme activity relative to vehicle controls. Dose-response studies were conducted for those compounds exerting ≧50% inhibition of activity at 10 nM in primary screening. IC50, defined as the inhibitor concentration which caused a 50% decrease of the activity under assay conditions, was computed using GraphPad Prism software, version 5.0.
The DPP-IV inhibition data (expressed either as IC50 in nanomolar or percent inhibition at a particular compound concentration) is presented in Table 1.
With `N#C[C@@H]1C[C@@H]2C[C@@H]2N1C(=O)[C@@H](N)C1CC2CCC(C1)N2C(=O)NS(=O)(=O)c1ccc(Cl)cc1.O=C(O)C(F)(F)F` (stereo partly drawn) [Compound 61, (1S,3S,5S)-2-{(2S)-2-Amino-2-[8-(4-chlorophenylsulfonylcarbamoyl)-8-aza-bicyclo[3.2.1]oct-3-yl]-exo-ethanoyl}-2-azabicyclo[3.1.0]hexane-3-carbonitrile trifluoroacetic acid salt], the “% inhibition at 10 nM” value amounted to 9% inhibition at 10 nM.

Turning to `N#C[C@@H]1C[C@@H]2C[C@@H]2N1C(=O)[C@H](N)C1CC2CCC(C1)N2C(=O)c1ccnc(F)c1.O=C(O)C(F)(F)F` (stereo partly drawn) [Compound 31, (1S,3S,5S)-2-{(2R)-2-Amino-2-[8-(2-fluoropyridine-4-carbonyl)-8-aza-bicyclo[3.2.1]oct-3-yl]-exo-ethanoyl}-2-azabicyclo[3.1.0]hexane-3-carbonitrile trifluoroacetic acid salt], the “% inhibition at 10 nM” value is reported as 6% inhibition at 10 nM.

As to `N#C[C@@H]1C[C@@H]2C[C@@H]2N1C(=O)[C@@H](N)C1CC2CCC(C1)N2CCOCc1ccccc1.O=C(O)C(F)(F)F` (stereo partly drawn) [Compound 50, (1S,3S,5S)-2-{(2S)-2-Amino-2-[8-(benzyloxy-ethyl)-8-aza-bicyclo[3.2.1]oct-3-yl]-exo-ethanoyl}-2-azabicyclo[3.1.0]hexane-3-carbonitrile trifluoroacetic acid salt], the “% inhibition at 10 nM” value is on record as 21% inhibition at 10 nM.

`N#C[C@@H]1C[C@@H]2C[C@@H]2N1C(=O)[C@@H](N)C1CC2CCC(C1)N2CCC(F)(F)F.O=C(O)C(F)(F)F` (stereo partly drawn) [Compound 47, (1S,3S,5S)-2-{(2S)-2-Amino-2-[8-(3,3,3-trifluoropropyl)-8-aza-bicyclo[3.2.1]oct-3-yl]-exo-ethanoyl}-2-azabicyclo[3.1.0]hexane-3-carbonitrile trifluoroacetic acid salt]: the “% inhibition at 10 nM” value came to 29% inhibition at 10 nM.

The same test, now with this note: compound 100 nM; relative to vehicle controls.
As to `N#C[C@H]1C[C@H]2C[C@H]2N1C(=O)[C@H](N)C1CC2CCC(C1)N2C(=O)c1cnccn1.O=C(O)C(F)(F)F` (stereo partly drawn) [Compound 38, (1R,3R,5R)-2-{(2R)-2-Amino-2-[8-(pyrazin-2-carbonyl)-8-aza-bicyclo[3.2.1]oct-3-yl]-exo-ethanoyl}-2-azabicyclo[3.1.0]hexane-3-carbonitrile trifluoroacetic acid salt], the “% inhibition at 100 nM” value was 16% inhibition at 100 nM.

Still in this test, the particulars now being: compound 1000 nM; relative to vehicle controls.
As for `NC(=O)[C@@H]1CCCN1C(=O)[C@@H](N)C1CC2CCC(C1)N2C(=O)c1ccc(C(F)(F)F)cc1.O=C(O)C(F)(F)F` (stereo partly drawn) [Compound 12, (2S)-1-{(2S)-2-amino-2-[8-(4-trifluoromethyl-benzoyl)-8-aza-bicyclo[3.2.1]-oct-3-yl]-exo-ethanoyl}-pyrrolidin-2-carboxamide trifluoroacetic acid salt], the “% inhibition at 1000 nM” value stood at 30% inhibition at 1000 nM.

The same test, now with this note: compound 1000 nM; relative to vehicle controls; read-out: % inhibition at 1000 nM.
For `N[C@H](C(=O)N1[C@H](C(=O)O)C[C@@H]2C[C@@H]21)C1CC2CCC(C1)N2C(=O)c1ccc2c(c1)OCO2` (stereo partly drawn) [Compound 46, (1S,3S,5S)-2-{(2S)-2-Amino-2-[8-(benzo[1,3]-dioxole-5-carbonyl)-8-aza-bicyclo[3.2.1]-oct-3-yl]-exo-ethanoyl}-2-azabicyclo[3.1.0]hexane-3-carboxylic acid hydrochloride], the inhibition – broadly, the percentage by which the read-out fell short of the control – at 1 µM was 13%.

Staying with this test, now noted: human recombinant DPP-IV, 50 μM Gly-Pro-AMC, 30 min at 30° C.
Turning to `N#C[C@@H]1C[C@@H]2C[C@@H]2N1C(=O)[C@@H](N)C1CC2CCC(C1)N2C(=O)c1ccncc1F` (stereo partly drawn) [Compound 41, (1S,3S,5S)-2-{(2S)-2-Amino-2-[8-(3-fluoropyridine-4-carbonyl)-8-aza-bicyclo[3.2.1]oct-3-yl]-exo-ethanoyl}-2-azabicyclo[3.1.0]hexane-3-carbonitrile trifluoroacetic acid salt], the IC50 – broadly, the concentration that inhibits the measured activity by half – was 4.92 nM.

Regarding `N#C[C@@H]1CCCN1C(=O)[C@@H](N)C1CC2CCC(C1)N2C(=O)Nc1ccc(C(F)(F)F)cc1` (stereo partly drawn) [Compound 22, (2S)-1-{(2S)-2-Amino-2-[8-(4-trifluoromethylphenylcarbamoyl)-8-aza-bicyclo[3.2.1]oct-3-yl]exo-ethanoyl}-pyrrolidin-2-carbonitrile trifluoroacetic acid salt], the IC50 stood at 2.83 nM.

In the case of `N#C[C@@H]1CCCN1C(=O)[C@@H](N)C1CC2CCC(C1)N2C(=O)c1ccnc(F)c1` (stereo partly drawn) [Compound 7, (2S)-1-{(2S)-2-Amino-2-[8-(2-fluoro-pyridine-4-carbonyl)-8-aza-bicyclo[3.2.1]oct-3-yl]-exo-ethanoyl}-pyrrolidin-2-carbonitrile trifluoroacetic acid salt], the IC50 was determined as 1.9 nM.

For the compound `N#C[C@@H]1C[C@H](F)CN1C(=O)[C@@H](N)C1CC2CCC(C1)N2C(=O)c1cc(F)ccc1F` (stereo partly drawn) [Compound 17, (2S,4S)-1-{(2S)-2-Amino-2-[8-(2,5-difluorobenzoyl)-8-aza-bicyclo[3.2.1]oct-3-yl]-exo-ethanoyl}-4-fluoro-pyrrolidin-2-carbonitrile trifluoroacetic acid salt], the half-inhibitory concentration (IC50) is 2.4 nM.

On to `N#C[C@@H]1CCCN1C(=O)[C@@H](N)C1CC2CCC(C1)N2C(=O)C12CC3CC(CC(C3)C1)C2` (stereo partly drawn) [Compound 3, (2S)-1-{(2S)-2-Amino-2-[8-(adamantane-1-carbonyl)-8-aza-bicyclo[3.2.1]oct-3-yl]-exo-ethanoyl}-pyrrolidin-2-carbonitrile trifluoroacetic acid salt], for which the IC50 stood at 6.67 nM.

Consider `N#C[C@@H]1CCCN1C(=O)[C@@H](N)C1CC2CCC(C1)N2C(=O)c1cc(F)ccc1F` (stereo partly drawn) [Compound 6, (2S)-1-{(2S)-2-Amino-2-[8-(2,5-difluorobenzoyl)-8-aza-bicyclo[3.2.1]oct-3-yl]-exo-ethanoyl}-pyrrolidin-2-carbonitrile trifluoroacetic acid salt], for which the IC50 was 2.3 nM.

Consider `N#C[C@@H]1C[C@@H]2C[C@@H]2N1C(=O)[C@@H](N)C1CC2CCC(C1)N2S(=O)(=O)c1cccs1` (stereo partly drawn) [Compound 57, (1S,3S,5S)-2-{(2S)-2-Amino-2-[8-(thiophene-2-sulfonyl)-8-aza-bicyclo[3.2.1]oct-3-yl]-exo-ethanoyl}-2-azabicyclo[3.1.0]hexane-3-carbonitrile trifluoroacetic acid salt], for which the IC50 was determined as 8 nM.

Consider `N#C[C@@H]1C[C@@H]2C[C@@H]2N1C(=O)[C@@H](N)C1CC2CCC(C1)N2S(=O)(=O)c1cc(F)cc(F)c1` (stereo partly drawn) [Compound 42, (1S,3S,5S)-2-{(2S)-2-Amino-2-[8-(3,5-difluorobenzenesulfonyl)-8-aza-bicyclo[3.2.1]oct-3-yl]-exo-ethanoyl}-2-azabicyclo[3.1.0]hexane-3-carbonitrile trifluoroacetic acid salt], for which the IC50 was 9 nM.

With `N#Cc1ccc(C(=O)N2C3CCC2CC([C@H](N)C(=O)N2CCC[C@H]2C#N)C3)cc1` (stereo partly drawn) [Compound 5, (2S)-1-{(2S)-2-Amino-2-[8-(4-cyano-benzoyl)-8-aza-bicyclo[3.2.1]oct-3-yl]-exo-ethanoyl}-pyrrolidin-2-carbonitrile trifluoroacetic acid salt], the IC50 amounted to 1.52 nM.

Regarding `C#C[C@H]1CC[C@@H](C#N)N1C(=O)[C@@H](N)C1CC2CCC(C1)N2C(=O)c1ccncc1` (stereo partly drawn) [Compound 64, (2S,5R)-1-{(2S)-2-Amino-2-[8-(pyridin-4-carbonyl)-8-aza-bicyclo[3.2.1]oct-3-yl]-exo-ethanoyl}-5-ethynyl-pyrrolidin-2-carbonitrile di trifluoro acetic acid salt], the IC50 worked out at 11 nM.

In the case of `N#Cc1ccc(N2C3CCC2CC([C@H](N)C(=O)N2[C@H](C#N)C[C@@H]4C[C@@H]42)C3)nc1` (stereo partly drawn) [Compound 51, (1S,3S,5S)-2-{(2S)-2-Amino-2-[8-(5-cyanopyridine-2-yl)-8-aza-bicyclo[3.2.1]oct-3-yl]-exo-ethanoyl}-2-azabicyclo[3.1.0]hexane-3-carbonitrile trifluoroacetic acid salt], the IC50 was 9.6 nM.

Staying with this test, now noted: read-out: % inhibition at 1000 nM.
On to `NC(=O)[C@@H]1C[C@@H]2C[C@@H]2N1C(=O)[C@@H](N)C1CC2CCC(C1)N2C(=O)c1ccc2c(c1)OCO2` (stereo partly drawn) [Compound 45, (1S,3S,5S)-2-{(2S)-2-Amino-2-[8-(benzo-[1,3]dioxole-5-carbonyl)-8-aza-bicyclo[3.2.1]oct-3-yl]-exo-ethanoyl}-2-azabicyclo[3.1.0]-hexane-3-carboxamide trifluoro acetic acid salt], for which the inhibition at 1 µM amounted to 12%.
